Values after ≈ are worked out from the molar mass of the structure shown. Non-standard residues stand in square brackets, D forms with d. Residues, ends and D or L forms follow the SMILES beside them. *: point of attachment. Palmitoyl = CCCCCCCCCCCCCCCC(=O)*
Key:
Type in all cases: cell-based
E. coli D21 = settings: D21, pH 7.4
[1] = tested on: Acinetobacter baumannii ATCC 19606; settings: ATCC 19606, pH 7.4
Method: (§1) The antibacterial activity of the lipopeptides was examined in sterile 96-well plates (Nunc F96 microtiter plates) in a final volume of 100 μl as follows: Aliquots (50 μl) of a suspension containing bacteria at concentration of 1×10^6 Colony-Forming Units (CFU)/ml in culture LB (Lauria broth) medium (pH 7.4 or pH 5.5) were added to 50 μl of water containing the lipopeptide in serial 2-fold dilutions in water. Adjustment of the pH was done by diluted solutions of HCl and NaOH Inhibition of growth was determined by measuring the absorbance at 600 nm with a Microplate autoreader E1309 (Bio-Tek Instruments), after an incubation time of 18-20 h at 37° C. Antibacterial activities were expressed as the minimal inhibitory concentration (MIC), the concentration at which 100% inhibition of growth was observed after 18-20 h of incubation. The bacteria used were: Escherichia coli ATCC 25922, Acinetobacter baumannii ATCC 19606, Pseudomonas aeruginosa ATCC 27853, Staphylococcus aureus ATCC 6538P, Enterococcus faecalis ATCC 29212, Enterobacter cloacae ATCC 49141. The antibacterial activity of lipopeptides was also examined against resistant bacteria: methicilin-resistant Staphylococcus aureus (MRSA) ATCC 700698 and vancomycin-resistant Enterococcus faecium (VRE) ATCC 700221. If not indicated otherwise, the bacterial growth was detected at pH 7.4.

[2] = tested on: Pseudomonas aeruginosa ATCC 27853; settings: ATCC 27853, pH 7.4
Method: as §1

[3] = tested on: Staphylococcus aureus ATCC 6538P; settings: ATCC 6538, pH 7.4
Method: as §1

[4] = tested on: Candida albicans ATCC 10231; experiment: microbe, parasite or virus in culture; settings: ATCC 10231, pH 7.4; read-out: Minimal Inhibitory Concentration, Candida Albicans (ATCC 10231)
Method: The antifungal activity of the lipopeptides was examined in sterile 96-well plates (Nunc F96 microtiter plates) in a final volume of 200 μL as follows: 100 µl of a suspension containing fungi at a concentration of 1×10^4 Colony-Forming Units (CFU)/ml in culture medium (RPMI 1640, 0.165 M MOPS with L-glutamine, without NaHCO3) at pH 7.4 or pH 5.5 (adjustment of the pH was done by diluted solutions of HCl and NaOH) were added to 100 μl of water containing the peptide in serial 2-fold dilutions in water. The fungi were incubated in the presence of the lipopeptides for 24-48 h at 35° C. in a Binder KB115 incubator under agitation. Growth inhibition was determined by measuring the absorbance at 620 nm with a Microplate autoreader E1309 (Bio-Tek Instruments). Antifungal activity is expressed as the minimal inhibitory concentration (MIC), the concentration at which 100% inhibition of fungi growth was observed after the incubation time mentioned above. The fungi used were: Aspergillus niger ATCC 9642, Candida albicans ATCC 10231 and Cryptococcus neoformans ATCC 66031. If not indicated otherwise, the fungi growth was detected at pH 7.4.

[5] = tested on: Cryptococcus neoformans ATCC MYA-422; experiment: microbe, parasite or virus in culture; settings: ATCC MYA-422, pH 7.4; read-out: Minimal Inhibitory Concentration, Cyrptococcus neoformans (ATCC MYA-422)
[6] = tested on: Aspergillus fumigatus ATCC 26430; experiment: microbe, parasite or virus in culture; settings: ATCC 26430, pH 7.4; read-out: Minimal Inhibitory Concentration, Aspergillus Fomigatus (ATCC 26430)

| SMILES | Minimal Inhibitory Concentration, E. coli-D21 (E. coli D21) [µM] | Minimal Inhibitory Concentration, A. baumannii ATCC 19606 [1] [µM] | Minimal Inhibitory Concentration, P. aeruginosa ATCC 27853 [2] [µM] | Minimal Inhibitory Concentration, S. aureus ATCC 6538P [3] [µM] | MIC [4] [µM] | MIC [5] [µM] | MIC [6] [µM] |
| --- | --- | --- | --- | --- | --- | --- | --- |
| CCCCCCCCCCCCCCCC(=O)N[C@@H](CCCCN)C(=O)N[C@@H](CCC(=O)O)C(N)=O [PA-KE] (Palmitoyl-Lys-Glu-NH2) | >100 | >100 | >100 | >100 | >100 | >100 | >100 |
| CCCCCCCCCCCCCCCC(=O)N[C@@H](CCCCN)C(=O)N[C@@H](C)C(=O)N[C@H](C)C(=O)N[C@@H](CCCCN)C(N)=O [PA-KAAK, Palmitoyl-Lys-Ala-D-Ala-Lys-NH2] (Palmitoyl-KA[dA]K-NH2) | 6.25 | 100 | 100 | 6.25 | 25 (≈ 16.3 µg/mL) | 3.12 (≈ 2.04 µg/mL) | 12.5 (≈ 8.17 µg/mL) |
| CCCCCCCCCCCCCCCC(=O)N[C@@H](CCCCN)C(N)=O [PA-K] | >100 | >100 | >100 | >100 | >100 | 6.25 (≈ 2.4 µg/mL) | >100 |
| CCCCCCCCCCCCCCCC(=O)N[C@@H](CCC(=O)O)C(=O)N[C@@H](CCCCN)C(=O)N[C@H](CCCCN)C(=O)N[C@@H](CCCCN)C(N)=O [PA-EKKK, Palmitoyl-Glu-Lys-D-Lys-Lys-NH2] (Palmitoyl-EK[dK]K-NH2) | 25 | >100 | >100 | 12.5 | 25 (≈ 19.2 µg/mL) | 6.25 (≈ 4.81 µg/mL) | 12.5 (≈ 9.61 µg/mL) |
| CCCCCCCCCCCCCC(=O)N[C@@H](CCCCN)C(=O)N[C@@H](CCCCN)C(=O)N[C@@H](CCCCN)C(N)=O [MYR-KKK] | 25 | >100 | – | 12.5 | >100 | 12.5 (≈ 7.65 µg/mL) | 100 (≈ 61.2 µg/mL) |

Source: patent publication US8445636B2, “Antimicrobial and anticancer lipopeptides” (Yeda Research & Development Co. Ltd., priority 2003, dated 2013)
